Residues, ends and D or L forms follow the SMILES beside them. *: point of attachment. Cbz = O=C(OCc1ccccc1)*; CH2Cl = ClC*
biological target: recombinant CpLDH protein (Cryptosporidium parvum, UniProt Q9GT92, F198L/K295E/R251K)

| SMILES | MEAN CpLDH INHIBITION (%) |
| --- | --- |
| Cc1c2ccnc(C(N)=O)c2c(C)c2c1[nH]c1ccccc12.Cl [NSC335142] | -27.72% |
| Fc1cccc(F)c1C1SCc2nc3ccccc3n21 (centres unmarked) [NSC625487] | -32.18% |
| COc1cc2c(c3oc4cccc(O)c4c(=O)c13)[C@@H]1C=CO[C@@H]1O2 [NSC204985] | -20.51% |
| N#CC1=C(N)Oc2c(ccc3cccnc23)C1c1ccccc1 (centres unmarked) [NSC631583] | -36.52% |
| CCC(C#N)(c1ccccc1)N(CCc1ccccc1)C(=O)c1ccccc1 (centres unmarked) [NSC681741] | -7.66% |
| NC(=O)C#CC(N)=O [NSC65381] | 0% |
| Cc1cc(-c2nc3ccccc3s2)ccc1N [NSC674495] | -21.24% |
| Nc1ncnc2c1ncn2C1OC(CO)C(O)C1O (centres unmarked) [NSC70422] | -12.00% |
| COC(=O)/C(=N\NC(=O)c1ccccc1O)C(C#N)c1ccccc1 (centres unmarked) [NSC635337] | -28.29% |
| NC(N)=NCCCS(=O)(=O)Nc1ccc(Nc2c3ccccc3nc3cc([N+](=O)[O-])ccc23)cc1 [NSC177365] | -212.36% |
| S=C1Nc2cnc3ccccc3c2SC1c1ccccc1 (centres unmarked) [NSC667467] | -21.66% |
| CC(=O)OC1CC(n2cc(F)c(=O)[nH]c2=O)OC1CO (centres unmarked) [NSC407335] | -11.80% |
| Cc1ccc(Nc2nc(C)c(C(/C=C/c3ccc(/C=C/C(=N\NC(=O)C[n+]4ccccc4)c4sc(Nc5ccc(C)cc5[N+](=O)[O-])nc4C)cc3)=N/NC(=O)C[n+]3ccccc3)s2)c([N+](=O)[O-])c1.Cl [NSC640342] | -89.53% |
| CCc1cccc(CC)c1NC(=O)C(C#N)C1=C(Cl)C(=O)c2ccccc2C1=O (centres unmarked) [NSC634503] | -5.79% |
| O=[N+]([O-])c1ccc(N=Nc2c(O)[nH]c3ccccc23)c([N+](=O)[O-])c1 [NSC4810] | -33.40% |
| CC(C)CC(NC(=O)OCc1ccccc1)C(=O)NC(Cc1ccccc1)C(=O)CCl (stereo not drawn) [NSC173904] (Cbz-Leu-Phe-CH2Cl; configuration not given here) | -56.33% |
| NC(=Nc1nc(-c2ccccn2)cc2ccccc12)c1ccccn1 [NSC637578] | -28.84% |
| C[n+]1cc2cc(O)c(O)cc2c2ccc3cc(O)c(O)cc3c21.Cl.[Cl-].c1ccncc1 [NSC184403] | -44.28% |
| CN(NC1=NCCO1)c1ccc2ccccc2c1 [NSC664286] | -26.92% |

| SMILES | MEAN CpLDH INHIBITION (%) |
| --- | --- |
| CC(=O)NC(CC(C)C)C(=O)NC(Cc1ccccc1)C(=O)CCl (stereo not drawn) [NSC173905] (Ac-Leu-Phe-CH2Cl; configuration not given here) | -39.37% |
| Cc1c(Cl)cccc1NC(=O)/C=C/c1ccccc1 [NSC191392] | -18.93% |
| Clc1cc2nc[nH]c2cc1Cl [NSC326397] | -5.75% |
| Cc1cc(Cl)cc2c1NC(=O)C2(O)C(C(=O)c1ccccc1)c1ccccc1 (centres unmarked) [NSC635435] | -63.48% |
| Cc1cccc(C)c1NC(=O)C(=O)C(c1ccccc1Cl)S(=O)(=O)Cc1ccccc1Cl (centres unmarked) [NSC657722] | -170.05% |
| O=C1/C(=C\c2ccc(Cl)c(Cl)c2)CN(C(=O)CCN2CCOCC2)C/C1=C\c1ccc(Cl)c(Cl)c1 [NSC638646] | -17.60% |
| Cc1ccccc1OCC(COC(=O)Nc1ccccc1)OC(=O)Nc1ccccc1 (centres unmarked) [NSC635824] | -3.02% |
| O=C(O)c1ccccc1-c1ccccc1C(=O)Nc1ccc2c(c1)Cc1ccccc1-2 [NSC67690] | -56.08% |
| O=C(CC1(O)C(=O)Nc2c(Cl)cc(Cl)cc21)c1ccc([N+](=O)[O-])cc1 (centres unmarked) [NSC635326] | -38.78% |
| CC(C)(C)CC(C)(C)NCC(O)COc1ccc(C(C)(C)c2ccc(OCC(O)CNC(C)(C)CC(C)(C)C)cc2)cc1.Cl (centres unmarked) [NSC145366] | -111.71% |
| CC1=C(N2CC2)C(=O)c2nc3n(c2C1=O)CCC3OC(=O)CCl (centres unmarked) [NSC651080] | -28.90% |
| CCN1C=C/C(=C\C=C\c2cc[n+](CC)c3ccccc23)c2ccccc21.[I-] [NSC34391] | -25.08% |
| O=c1[nH]c2ccc(O)cc2o1 [NSC603719] | -2.52% |
| Br.CN(C)c1nc(=NCc2ccco2)ss1 [NSC622608] | -22.44% |
| O=S1(=O)OCCOS(=O)(=O)C1Cc1ccccc1 [NSC634863] | -18.12% |
| Cl.NC(=O)c1cn(C2OC(CO)C(O)C2O)c2ncnc(N)c12 (centres unmarked) [NSC143648] | -33.40% |
| O=C1/C(=C/c2ccc([N+](=O)[O-])cc2)Sc2scc(-c3cccc([N+](=O)[O-])c3)[n+]21.[Cl-] [NSC657598] | -68.44% |
| CCCCCCCCCCSCC(CO)NC(=O)/C=C/c1c(C)[nH]c(=O)[nH]c1=O (centres unmarked) [NSC265473] | -39.94% |
| CNC(=S)N/N=C/c1ccc([N+](=O)[O-])s1 [NSC169543] | -46.26% |

| SMILES | MEAN CpLDH INHIBITION (%) |
| --- | --- |
| O=C1c2ccccc2-c2c1c1ccccc1c(=O)n2Cc1ccccc1 [NSC337612] | -26.65% |
| Cc1ccc(NC(=O)c2cc3ccccc3c(N=Nc3ccccc3O)c2O)c(C)c1 [NSC374898] | -39.33% |
| CC1=C[C@H]2O[C@@H]3[C@H](O)[C@@H](O)[C@](C)([C@@]2(CO)CC1)[C@]31CO1 [NSC269142] | -41.10% |
| CCCCCCCCCCCCCCCCCCOP(=O)([O-])OCC[N+](C)(C)C [NSC282880] | -0.05% |
| NC(=O)N/N=C1\CC2C3CC4C2C4C13 (centres unmarked) [NSC673912] | -116.36% |
| COc1cc2c(cc1O)N=CC1CCC(O)N1C2=O (centres unmarked) [NSC285223] | -56.39% |
| Cc1[nH]c(=O)[nH]c(=O)c1/C=C/C(=O)NC(CO)CC(C)C (centres unmarked) [NSC224117] | -0.81% |
| CC(C)(C)c1ccc(OC2CCO2)cc1 (centres unmarked) [NSC635975] | -52.75% |
| CCOC(=O)Nc1cc2c(c(N)n1)N=C(c1ccccc1)CN2 [NSC330770] | -9.40% |
| O=C1OC(c2ccco2)=N/C1=C\c1ccc(Cl)c(Cl)c1 [NSC202000] | -23.71% |
| COC(=O)c1c[nH]c2c1-c1cc(C(=O)OCc3ccccc3)n(S(=O)(=O)c3ccc(C)cc3)c1C(=O)C2=O [NSC679524] | -184.78% |
| NC1=NCN([C@@H]2O[C@H](CO)[C@@H](O)[C@H]2O)C(=O)N1 [NSC264880] | -2.01% |
| CN(C)CCOC1(Cc2ccc(F)cc2)CCC(C(C)(C)C)CC1.O=C(O)/C=C/C(=O)O (centres unmarked) [NSC670226] | -20.67% |
| COc1ccccc1Cc1nc(-c2ccccc2)nn(C2OC(COC(C)=O)C(OC(C)=O)C(OC(C)=O)C2OC(C)=O)c1=S (centres unmarked) [NSC625873] | -25.33% |
| CCS(=O)(=O)Nc1ccc(Nc2c3ccccc3nc3ccccc23)c(OC)c1.CS(=O)(=O)O [NSC243928] | -32.64% |
| S=C=NCc1ccccc1 [NSC118976] | -18.30% |
| Cc1ccc(S(=O)(=O)NC(=O)NC2=NC(C)(C)N(c3ccc(Cl)c(Cl)c3)C(N)=N2)cc1 [NSC603624] | -12.73% |
| COC(=O)[C@@H]1[C@H](O)[C@H](C)[C@H](O)[C@H](C)/C=C\C=C(/C)C(=O)Nc2c(C)c(OC(C)=O)c3c(c2O)C(=O)C(C)=C2OCOC(=C23)/C(C)=C/[C@@](C)(O)[C@H](O)[C@@H](C)[C@H]1OC(C)=O [NSC156215] | -35.58% |

Source: publication PMC6687188, “Novel lactate dehydrogenase inhibitors with in vivo efficacy against Cryptosporidium parvum” (PLoS Pathogens, 2019)
